Biological target: T1, PIM-1 kinase (Homo sapiens, UniProt P11309)
T1 construct: purchased Millipore 14-573
Assay: PIM Kinase Activity Assay-IMAP Fluorescence Polarization Assay (PIM-1)
Type: biochemical
Conditions: 3 μM concentration
Method: In the present invention, the PIM activities of the compounds were tested by BioDuro (Building E, No. 29 Life Science Park Road, Changping District, Beijing, 102206, P.R. China). The method used for testing is PIM Kinase Activity Assay-IMAP Fluorescence Polarization Assay PIM Kinase Activity Assay-IMAP Fluorescence Polarization Assay 1. Principle PIM kinases are serine/threonine protein kinases, and they can phosphorylate 5-FAM labeled small peptide substrates. Fluorescence polarization is less for non-phosphorylated substrates since that can not bind to the binder (metal binding nanoparticles). On the other hand, fluorescence polarization is more for phosphorylated substrates since that can bind to the binder. The level of 5-FAM labeled small peptide substrates phosphorylation reflects the activities of PIM kinase. By measuring their ability of inhibiting PIM kinase of the compounds of the present invention, their activities of inhibiting PIM kinases can be determined 2. Instrument EnVision (PerkinElmer, Waltham, Mass.) 3. Reagents and 384 well plates PIM1 (Millipore Cat. #14-573) (Millipore Corporation, Billerica, Mass.) PIM2 (Millipore Cat. #14-607) (Millipore Corporation, Billerica, Mass.) 5-FAM labeled peptide (5-FAM-RSRHSSYPAGT, AnaSpec Cat. #63801) (AnaSpec Inc., Fremont, Calif.) IMAP FP Screening Express kit (IMAP FP Screening kit) (Molecular Devices Cat. #R8127) (Molecular Devices, Sunnyvale, Calif.) IMAP Progressive binding reagent IMAP Progressive binding buffer A (5×) IMAP Progressive binding buffer B (5×) 384-well black plate (Corning Cat. #3573) (Corning, Midland Mich.) 4. Assay Buffer
a) 10 mM compound stock solution is diluted to appropriate concentration with 100% DMSO, then diluted 10 fold to targeted concentration with test butter to keep DMSO concentration at 10%
1 ul of compound solution and 4 ul of enzyme (PIM-1 final concentration 0.025 nM, PIM-2 concentration 3 nM) is incubated at 23° C. for 15 min, 2.5 ul ATP (for PIM-1 and PIM-2, the final ATP concentrations are 30 uM and 5 uM respectively) 2.5 ul 5-FAM labeled peptide (final concentration 100 nM) was added to start the reaction. The reaction is run at 23° C. for 60 min DMSO is used in place of compound stock solution as maximum reference and assay buffer is used in place of enzyme as minimum reference. c) add 30 ul IMAP binding reagent (containing 75% IMAP Buffer A, 25% IMAP Buffer B, 1/600 dilution of beads) to stop the reaction, incubated at room temperature for 60 min d) Measure fluorescence polarization, excitation wavelength: 485 nm, emission wavelength 530 nm. 6. Data process IC50 values were calculated using Graphpad Prism®.

T1 sequence (P11309 whole entry): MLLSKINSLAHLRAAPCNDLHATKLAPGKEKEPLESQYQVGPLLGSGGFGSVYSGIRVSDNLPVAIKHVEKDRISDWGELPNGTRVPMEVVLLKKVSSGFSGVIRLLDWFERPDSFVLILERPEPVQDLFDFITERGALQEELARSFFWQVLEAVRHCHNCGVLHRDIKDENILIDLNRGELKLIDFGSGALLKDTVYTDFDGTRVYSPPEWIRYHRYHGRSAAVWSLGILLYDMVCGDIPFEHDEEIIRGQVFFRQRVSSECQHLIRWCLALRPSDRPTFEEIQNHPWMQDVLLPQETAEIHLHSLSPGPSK

Inhibition at 3 µM, 20 to 50%:
O=C(Nc1cnsc1N1CCNCC1)c1cc(-c2ccccc2F)n[nH]1 [Compound 42, 3-(2-fluorophenyl)-N-(5-(piperazin-1-yl)isothiazol-4-yl)-1H-pyrazole-5-carboxamide]
O=C(Nc1cnsc1N1CCNCC1)c1csc(C2COc3ccccc3O2)n1 (stereo not shown) [Compound 40, 2-(2,3-dihydrobenzo[b][1,4]dioxin-2-yl)-N-(5-(piperazin-1-yl)isothiazol-4-yl)thiazole-4-carboxamide]
Cc1cc(C(=O)Nc2cnsc2N2CCNCC2)nn1-c1ccccc1F [Compound 41, 1-(2-fluorophenyl)-5-methyl-N-(5-(piperazin-1-yl)isothiazol-4-yl)-1H-pyrazole-3-carboxamide]
O=C(Nc1cnsc1N1CCOCC1)c1csc(C2COc3ccccc3O2)n1 (stereo not shown) [Compound 28, 2-(2,3-dihydrobenzo[b][1,4]dioxin-2-yl)-N-(5-morpholinoisothiazol-4-yl)thiazole-4-carboxamide]
CC(C)(C)OC(=O)N1CCC(c2nc(C(=O)Nc3cnsc3N3CCOCC3)cs2)CC1 [Compound 25, tert-butyl 4-(4-((5-morpholinoisothiazol-4-yl)carbamoyl)thiazol-2-yl)piperidine-1-carboxylate]
CC(=O)Nc1nc(C(=O)Nc2cnsc2N2CCNCC2)cs1 [Compound 39, 2-acetamido-N-(5-(piperazin-1-yl)isothiazol-4-yl)thiazole-4-carboxamide]
O=C(Nc1cnsc1N1CCOCC1)c1csc(C2CCNCC2)n1 [Compound 26, N-(5-morpholinoisothiazol-4-yl)-2-(piperidin-4-yl)thiazole-4-carboxamide]
O=C(Nc1cnsc1N1CCNCC1)c1coc(-c2ccccc2)n1 [Compound 43, 2-phenyl-N-(5-(piperazin-1-yl)isothiazol-4-yl)oxazole-4-carboxamide]
O=C(Nc1cnsc1N1CCc2c(O)cccc2C1)c1cccc(-c2c(F)cccc2F)n1 [Compound 52, 6-(2,6-difluorophenyl)-N-(5-(5-hydroxy-3,4-dihydroisoquinolin-2(1H)-yl)isothiazol-4-yl)picolinamide]
O=C(Nc1cnsc1N1CCNCC1)c1csc(N2CCOCC2)n1 [Compound 36, 2-morpholino-N-(5-(piperazin-1-yl)isothiazol-4-yl)thiazole-4-carboxamide]

Source: patent US8969584B2, “PIM kinase inhibitors and preparation methods and use in medicinal manufacture thereof” (Jikai Biosciences, Inc., priority 2011, dated 2015)
